Results taken from patent publication US20100179225A1, “POI Prevention” (CYTOKINE PHARMASCIENCES, INC., priority 2008, published 2010).

Legend:
IL-6 mRNA = experiment: Proinflammatory gene expression in ME, real-time RT-PCR: IL-6; assay type: in vivo, mice; settings: 5 mg/kg i.v. preoperative; 6 hours after IM; vs placebo IM
Description: (§1) The small bowel of the animals was subjected to a standardized, surgical manipulation (IM) as described previously (Kalff J C, Schraut W H, Simmons R L et al. Surgical manipulation of the gut elicits an intestinal muscularis inflammatory response resulting in postsurgical ileus. Ann Surg 1998; 228:652-663; Wehner S, Schwarz N T, Hundsdoerfer R et al. Induction of IL-6 within the rodent intestinal muscularis after intestinal surgical stress. Surgery 2005; 137:436-446). In brief, after anesthesia a midline abdominal incision was made into the peritoneal cavity. […]
(§2) Proinflammatory gene expression was analyzed in placebo and CNI-1493 (5 mg/kg) treated animals at 1, 3, 6 and 24 hours after operation; n=5-7 each group. […] Total RNA was analyzed in ME specimen that was prepared as described before (Wehner S, Behrendt F F, Lyutenski B N et al. Inhibition of macrophage function prevents intestinal inflammation and postoperative ileus in rodents. Gut 2007; 56:176-185). […] Expression of mRNA was quantified in triplicate by a RT-PCR with gene expression assays for […] (MCP-1; #Mm00441242_m1), CCL3 (MIP-1α #Mm00441258_m1), IL-6 (Assay ID #Mm00446190_ml), TNF-α (#Mm00443258_m1) and ICAM-1 (#Mm00516023_m1). […] Data quantification was performed by the ΔΔCT method. […]

p38-MAPK = p38-MAPK phosphorylation in ME lysates after intestinal manipulation (immunoblot); assay type: in vivo, C57BL/6J mice; settings: 5 mg/kg i.v. preoperative; 30 minutes after operation; compared to placebo group
Description: as §1, with “cavity. The entire small bowel was eventuated and manipulated with standardized moderate intensity using two moist cotton applicators as described previously. After IM, the laparotomy was closed by one layer of continuous suture, except when probe sampling was conducted within 20 minutes after surgery.” for “cavity.”
(§3) p38-MAPK and JNK/SAPK phosphorylation were analyzed in C57BL/6J mice 15, 30 and 60 minutes after IM and in unoperated controls. […] Finally, the sonicated samples were centrifuged at 13.000×g for 10 minutes, and total protein concentration was determined with Pierce BCA protein assay (Perbio, Bonn, Germany). […]
(§4) After PAGE, proteins were blotted on Immobilon-P […] PVDF membranes. […] Chemiluminscence signals were detected with a LAS 4000 system (Fujifilm, Duesseldorf, Germany).

ICAM-1 mRNA = experiment: Proinflammatory gene expression in ME, real-time RT-PCR: ICAM-1; assay type: in vivo, mice; settings: 5 mg/kg i.v. preoperative
Description: as §1, §2

JNK/SAPK = JNK/SAPK phosphorylation in ME lysates after intestinal manipulation (immunoblot); assay type: in vivo, C57BL/6J mice; settings: 5 mg/kg i.v. preoperative; after IM
Description: as §1, with “cavity. The entire small bowel was eventuated and manipulated with standardized moderate intensity using two moist cotton applicators as described previously. After IM, the laparotomy was closed by one layer of continuous suture, except when probe sampling was conducted within 20 minutes after surgery.” for “cavity.”
as §3, §4

swine = experiment: Intestinal anastomotic healing in swine (bursting pressure, hydroxyproline content); assay type: in vivo; settings: 1 mg/kg p.o. 14 hours and 3 hours, or once 2 hours (iv group), before operation, postoperative day 6
Protocol: Swine were fed with 1 mg/kg CPSI-2364 or placebo (2.5% mannitol) 14 hours and 3 hours before operation. In the iv group, 1 mg/kg CPSI 2364 was fed once 2 hours before operation. After premedication animals were intubated and a central venous catheter was applied. A laparotomy was performed under sterile conditions.

C/C(=N\N=C(N)N)c1cc(NC(=O)CCCCCCCCC(=O)Nc2cc(/C(C)=N/N=C(N)N)cc(/C(C)=N/N=C(N)N)c2)cc(/C(C)=N/N=C(N)N)c1.Cl.Cl.Cl.Cl [CNI-1493]
IL-6 expression diminished (IL-6 mRNA): more than 55%
upregulation of p38-MAPK phosphorylation by IM (p38-MAPK): reduced near to control levels
ICAM-1 mRNA expression (fold upregulation) (ICAM-1 mRNA; 1 hour after IM): 3.3±0.70 fold
ICAM-1 mRNA expression (fold upregulation) (ICAM-1 mRNA; 3 hours after IM): 7.2±2.8 fold
JNK/SAPK phosphorylation (JNK/SAPK): not affected

C/C(=N\N=C(N)N)c1cc(NC(=O)CCCCCCCCC(=O)Nc2cc(/C(C)=N/N=C(N)N)cc(/C(C)=N/N=C(N)N)c2)cc(/C(C)=N/N=C(N)N)c1.CS(=O)(=O)O.CS(=O)(=O)O.CS(=O)(=O)O.CS(=O)(=O)O [CPSI-2364]
anastomotic bursting pressure levels vs placebo (swine): No differences were observed
anastomotic hydroxyproline content vs placebo (swine): No differences were observed
